One data set can be described thus: Protein binding, rabbit. The class given is in vitro ADME.
The next data set has as its target hERG (Homo sapiens (Human), UniProt Q12809). Briefly: hERG patch clamp assay. It is filed as cell-based. The conditions noted are these: HEK-293 cells stably expressing hERG, pH 7.4, protein-free buffer, read-out: hERG, % inh @ 30 μM. The method, then: Whole-cell patch-clamp was used to directly measure hERG tail currents in HEK-293 cells stably expressing the cloned hERG potassium channel α subunit. Effects of compounds were calculated by measuring inhibition of peak tail current. Experiments were carried out using an aqueous buffer with pH 7.4 at room temperature. There was no protein in the assay buffer. The test concentrations reported are nominal free drug levels.

The target in data set [1] is human cardiac sodium channel SCN5A (Homo sapiens (Human), UniProt Q14524). Put plainly: Sodium channel whole-cell patch-clamp assay. It is filed as cell-based. The settings on record: HEK-293 cells expressing human cardiac sodium channel SCN5A, pH 7.4, protein-free buffer, read-out: Na, % inh. As for the experimental part:
Whole-cell patch-clamp was used to directly measure inward sodium currents in HEK-293 cells expressing the human cardiac sodium channel, SCN5A. After reach steady-state effect in the presence of drug, rate-dependence was assessed by stimulation at frequencies of 1 Hz and 4 Hz. Experiments were carried out using an aqueous buffer at pH 7.4 and at room temperature. There is no protein in the buffer and drug concentrations reported are nominal free drug levels. Test article was evaluated up to 10 μM (protein-free buffer). Rate-dependence of inhibition was assessed by stimulation at frequencies of 1 Hz and 4 Hz.

Chain of human cardiac sodium channel SCN5A (Q14524 whole entry): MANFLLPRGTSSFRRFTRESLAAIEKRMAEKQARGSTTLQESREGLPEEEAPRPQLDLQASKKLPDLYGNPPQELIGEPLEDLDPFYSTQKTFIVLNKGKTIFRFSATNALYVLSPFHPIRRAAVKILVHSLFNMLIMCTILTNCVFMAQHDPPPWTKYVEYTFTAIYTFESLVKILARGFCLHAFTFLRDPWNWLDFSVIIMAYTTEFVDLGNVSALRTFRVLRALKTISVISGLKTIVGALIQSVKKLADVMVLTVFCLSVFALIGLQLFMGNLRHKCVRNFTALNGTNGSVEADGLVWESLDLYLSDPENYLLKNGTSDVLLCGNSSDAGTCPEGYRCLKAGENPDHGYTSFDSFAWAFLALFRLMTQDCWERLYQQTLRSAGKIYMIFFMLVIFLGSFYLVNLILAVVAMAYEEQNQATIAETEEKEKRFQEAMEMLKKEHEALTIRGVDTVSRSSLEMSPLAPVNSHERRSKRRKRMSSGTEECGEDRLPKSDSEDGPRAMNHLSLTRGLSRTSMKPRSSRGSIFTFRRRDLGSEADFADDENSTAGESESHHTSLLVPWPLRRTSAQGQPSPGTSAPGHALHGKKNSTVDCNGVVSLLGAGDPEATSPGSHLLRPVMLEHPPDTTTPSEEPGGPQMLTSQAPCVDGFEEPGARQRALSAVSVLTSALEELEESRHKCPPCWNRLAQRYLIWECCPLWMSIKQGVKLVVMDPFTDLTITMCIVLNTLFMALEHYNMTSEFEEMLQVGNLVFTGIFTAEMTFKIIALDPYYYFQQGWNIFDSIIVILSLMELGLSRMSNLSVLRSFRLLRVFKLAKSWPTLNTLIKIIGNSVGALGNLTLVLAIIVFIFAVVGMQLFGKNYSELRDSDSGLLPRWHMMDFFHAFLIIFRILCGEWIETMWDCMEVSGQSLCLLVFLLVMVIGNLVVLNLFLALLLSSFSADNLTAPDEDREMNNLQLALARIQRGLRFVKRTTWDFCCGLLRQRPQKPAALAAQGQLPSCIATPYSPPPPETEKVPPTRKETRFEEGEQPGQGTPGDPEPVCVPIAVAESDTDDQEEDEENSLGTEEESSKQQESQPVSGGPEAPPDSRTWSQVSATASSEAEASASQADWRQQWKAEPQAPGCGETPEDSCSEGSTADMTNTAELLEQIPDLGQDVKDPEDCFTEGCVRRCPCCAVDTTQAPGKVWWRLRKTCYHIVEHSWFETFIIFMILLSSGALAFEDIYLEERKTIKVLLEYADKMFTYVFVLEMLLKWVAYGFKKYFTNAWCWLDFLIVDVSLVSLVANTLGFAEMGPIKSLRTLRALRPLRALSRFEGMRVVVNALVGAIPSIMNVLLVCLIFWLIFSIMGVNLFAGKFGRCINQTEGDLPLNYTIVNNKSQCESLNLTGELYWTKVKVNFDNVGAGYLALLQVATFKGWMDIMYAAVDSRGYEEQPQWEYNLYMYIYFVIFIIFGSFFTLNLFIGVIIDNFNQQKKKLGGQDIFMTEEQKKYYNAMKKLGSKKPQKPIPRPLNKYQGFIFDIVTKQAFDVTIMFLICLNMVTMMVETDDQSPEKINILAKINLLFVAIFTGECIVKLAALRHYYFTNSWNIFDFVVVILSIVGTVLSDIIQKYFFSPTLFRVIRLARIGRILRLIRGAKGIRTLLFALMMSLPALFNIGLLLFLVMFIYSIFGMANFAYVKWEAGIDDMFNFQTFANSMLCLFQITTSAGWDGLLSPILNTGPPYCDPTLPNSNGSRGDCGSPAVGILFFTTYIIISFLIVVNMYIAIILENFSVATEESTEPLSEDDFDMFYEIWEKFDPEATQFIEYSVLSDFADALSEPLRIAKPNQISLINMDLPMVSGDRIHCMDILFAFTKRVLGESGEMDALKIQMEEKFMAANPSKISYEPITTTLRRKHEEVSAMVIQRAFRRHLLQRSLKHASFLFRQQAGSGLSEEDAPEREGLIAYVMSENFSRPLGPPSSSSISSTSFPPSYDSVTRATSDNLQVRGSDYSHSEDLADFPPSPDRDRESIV
Chain of hERG (Q12809 whole entry): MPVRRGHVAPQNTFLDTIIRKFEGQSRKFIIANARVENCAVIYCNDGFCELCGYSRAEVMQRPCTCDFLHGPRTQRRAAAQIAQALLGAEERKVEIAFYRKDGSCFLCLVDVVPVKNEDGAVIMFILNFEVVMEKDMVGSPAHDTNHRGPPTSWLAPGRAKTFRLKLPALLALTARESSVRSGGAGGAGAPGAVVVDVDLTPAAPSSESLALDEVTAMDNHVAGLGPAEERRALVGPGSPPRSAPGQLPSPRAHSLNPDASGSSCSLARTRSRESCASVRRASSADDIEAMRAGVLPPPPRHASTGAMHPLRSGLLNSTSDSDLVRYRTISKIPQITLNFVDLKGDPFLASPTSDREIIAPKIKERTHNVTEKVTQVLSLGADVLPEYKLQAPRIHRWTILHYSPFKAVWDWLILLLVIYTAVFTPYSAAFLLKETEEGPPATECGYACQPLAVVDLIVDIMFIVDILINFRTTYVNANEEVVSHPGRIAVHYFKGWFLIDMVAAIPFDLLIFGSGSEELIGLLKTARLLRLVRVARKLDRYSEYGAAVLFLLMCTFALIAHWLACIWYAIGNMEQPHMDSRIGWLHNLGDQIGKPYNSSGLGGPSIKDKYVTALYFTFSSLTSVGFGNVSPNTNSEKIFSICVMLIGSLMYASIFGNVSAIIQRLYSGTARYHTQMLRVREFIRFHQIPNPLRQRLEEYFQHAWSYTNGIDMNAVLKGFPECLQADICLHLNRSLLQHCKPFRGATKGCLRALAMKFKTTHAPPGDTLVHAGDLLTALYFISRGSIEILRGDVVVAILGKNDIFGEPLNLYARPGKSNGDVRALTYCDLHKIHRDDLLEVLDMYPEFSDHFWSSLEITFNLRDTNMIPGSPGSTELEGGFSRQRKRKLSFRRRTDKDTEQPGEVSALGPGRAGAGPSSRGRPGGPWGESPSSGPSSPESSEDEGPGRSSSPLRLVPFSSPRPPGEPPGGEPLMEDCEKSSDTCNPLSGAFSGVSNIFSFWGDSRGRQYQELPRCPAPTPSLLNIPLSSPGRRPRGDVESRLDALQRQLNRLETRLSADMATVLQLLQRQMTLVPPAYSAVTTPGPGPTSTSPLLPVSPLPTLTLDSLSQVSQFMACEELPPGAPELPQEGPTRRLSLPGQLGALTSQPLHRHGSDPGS

In the data set “Protein binding, rabbit”, `CC(C)[C@@H](NC(=O)NCC(C)(C)O)C(=O)N1CC[C@](O)(c2ccc(Cl)cc2)C(C)(C)C1` [Compound I] yielded a free fraction (fraction unbound) of 0.13. On hERG, the inhibition at 30 µM is 29%. The inhibition at 10 µM in data set [1] came to 12%.

The values above are taken from patent publication US8633226B2, “Piperidinyl derivative as a modulator of chemokine receptor activity” (Bristol-Myers Squibb Company, priority 2008, dated 2014).
